Literature values, collected in patent US20100317740A1, “Method for Predicting Response to Tamoxifen” (GEORGE MASON INTELLECTUAL PROPERTIES, INC., priority 2007, published 2010).

Tested on: node negative breast cancer with estrogen receptor on tumors
Conditions: women with node negative breast cancer and estrogen receptor on their tumors

## CC/C(=C(\c1ccccc1)c1ccc(OCCN(C)C)cc1)c1ccccc1 [Tamoxifen]
  eligible women who do not respond to Tamoxifen therapy: 30-40%
